According to publication PMC5297980 (Clinical Pharmacology in Drug Development, 2016):
pIC50, pKi: −log10 of the molar value. Each block holds one compound with its values, some of them ahead of it.

Experiments:
[1] = Phase 1 digoxin-isavuconazole interaction study, plasma PK; type: in vivo, human
[2] = cited from earlier work
P‐gp = details: in vitro studies; cited from earlier work
[3] = Phase 1 methotrexate-isavuconazole interaction study, plasma PK; type: in vivo, human
[4] = test system: multidrug and toxin extrusion 1 (MATE1); details: HEK293 cells, [^14C]metformin substrate; ref data on file; cited from earlier work
[5] = test system: organic anion transporter 1 (OAT1); details: HEK293 cells, [^3H]‐p‐aminohippuric acid substrate; ref data on file; cited from earlier work
OAT3 = details: HEK293 cells, [^3H]estrone sulfate substrate; ref data on file; cited from earlier work
[6] = test system: organic anion‐transporting polypeptide 1B1 (OATP1B1); details: HEK293 cells, [^3H]estradiol 17β‐D‐glucuronide substrate; ref data on file; cited from earlier work
[7] = test system: organic cation transporter 1 (OCT1); details: HEK293 cells, [^14C]tetraethylammonium bromide; ref data on file; cited from earlier work
OCT2 = details: HEK293 cells, [^14C]metformin substrate; ref data on file; cited from earlier work
[8] = Phase 1 metformin-isavuconazole interaction study, plasma PK
[9] = Phase 1 atorvastatin-isavuconazole interaction study, plasma PK; details: human, oral, 200 mg
[10] = OATP1B1 substrate; cited from earlier work
[11] = methotrexate + isavuconazole (day 8), mean (SD)
[12] = methotrexate + isavuconazole vs methotrexate alone
[13] = methotrexate alone (day 1), mean (SD)

Mean AUClast higher in the presence vs absence of isavuconazole ([1]; digoxin study): 24%
Mean AUC∞ higher in the presence vs absence of isavuconazole ([1]; digoxin study): 25%
Mean Cmax higher in the presence vs absence of isavuconazole ([1]; digoxin study): 33%
AUC(0-t) ([1]; human, plasma, oral, 0.5 mg): 32.9 ng·h/mL
Cmax ([1]; human, plasma, oral, 0.5 mg): 1.6 ng/mL
half-life ([1]; human, plasma, oral, 0.5 mg): 40.9 h
AUC(0-inf) ([1]; human, plasma, po, 0.5 mg): 34.4 ng·h/mL
Structure (SMILES): C[C@H]1O[C@@H](O[C@H]2[C@@H](O)C[C@H](O[C@H]3[C@@H](O)C[C@H](O[C@H]4CC[C@@]5(C)[C@H](CC[C@@H]6[C@@H]5C[C@@H](O)[C@]5(C)[C@@H](C7=CC(=O)OC7)CC[C@]65O)C4)O[C@@H]3C)O[C@@H]2C)C[C@H](O)[C@@H]1O [Digoxin, digoxin]

Structure (SMILES): CC[C@@H]([C@H](C)O)n1ncn(-c2ccc(N3CCN(c4ccc(OC[C@@H]5CO[C@@](Cn6cncn6)(c6ccc(F)cc6F)C5)cc4)CC3)cc2)c1=O [Posaconazole]
effect on plasma concentrations of digoxin ([2]; ref NOXAFIL package insert): increase plasma concentrations of digoxin

Structure (SMILES): OC(Cn1cncn1)(Cn1cncn1)c1ccc(F)cc1F [fluconazole]
inhibition of P‐gp‐mediated active transport (P‐gp): not an inhibitor

Structure (SMILES): C[C@@H](c1nc(-c2ccc(C#N)cc2)cs1)[C@](O)(Cn1cncn1)c1cc(F)ccc1F [Isavuconazole, isavuconazole]
AUC ([1]; human, plasma, oral, 200 mg): 102000 ng·h/mL
Cmax ([1]; human, plasma, oral, 200 mg): 6100 ng/mL
Tmax ([1]; human, plasma, oral, 200 mg): 3 h
AUC ([3]; human, plasma, oral, 200 mg): 99400 ng·h/mL
Cmax ([3]; human, plasma, oral, 200 mg): 6200 ng/mL
Tmax ([3]; human, plasma, oral, 200 mg): 3 h
pIC50 [4]: 5.20
pIC50 [5]: < 5.00
pIC50 (OAT3): < 5.00
pIC50 [6]: 4.95
pIC50 [7]: 5.43
pKi [7]: 5.76
pIC50 (OCT2): 5.71
pKi (OCT2): 6.16
AUC ([8]; human, plasma, oral, 200 mg): 106000 ng·h/mL
Cmax ([8]; human, plasma, oral, 200 mg): 7100 ng/mL
Tmax ([8]; human, plasma, oral, 200 mg): 3 h
AUC [9]: 77300 ng·h/mL
Cmax [9]: 5300 ng/mL
Tmax [9]: 3 h

AUC∞ ([3]; methotrexate 7.5 mg single oral dose alone (day 1), mean (SD)): 635.8 (309.3) h·ng/mL
AUClast [3, 11]: 683.2 (272.5) h·ng/mL
Cmax [3, 11]: 36.7 (14.0) ng/mL
t1/2 [3, 11]: 13.0 (2.3) h
Tmax ([3]; methotrexate + isavuconazole (day 8), median (range)): 6.0 (3.5‐10.0) h
AUClast geometric least‐squares mean ratio (90% confidence interval) [3, 12]: 124 (114, 135) %
AUC∞ geometric least‐squares mean ratio (90% confidence interval) [3, 12]: 129 (119, 141) %
Cmax geometric least‐squares mean ratio (90% confidence interval) [3, 12]: 115 (104, 127) %
AUClast [3, 13]: 554.6 (242.6) h·ng/mL
Cmax [3, 13]: 32.1 (13.4) ng/mL
t1/2 [3, 13]: 11.9 (2.9) h
Tmax ([3]; methotrexate alone (day 1), median (range)): 6.0 (5.0‐10.0) h
Mean AUClast higher during concomitant administration with isavuconazole ([3]; vs methotrexate alone): 24%
Mean AUC∞ higher during concomitant administration with isavuconazole ([3]; vs methotrexate alone): 29%
Mean Cmax higher during concomitant administration with isavuconazole ([3]; vs methotrexate alone): 15%
Structure (SMILES): CN(Cc1nc2c(N)nc(N)nc2[nH]c1=O)c1ccc(C(=O)N[C@@H](CCC(=O)O)C(=O)O)cc1 [7‐Hydroxymethotrexate, 7‐hydroxymethotrexate]

Cmax ([3]; human, plasma, oral, 7.5 mg): 156 ng/mL
Tmax ([3]; human, plasma, oral, 7.5 mg): 1 h
AUC(0-inf) ([3]; human, plasma, po, 7.5 mg): 620 ng·h/mL
Mean AUClast lower when coadministered with isavuconazole ([3]; vs methotrexate alone): 3%
Mean AUC∞ lower when coadministered with isavuconazole ([3]; vs methotrexate alone): 3%
Mean Cmax lower when coadministered with isavuconazole ([3]; vs methotrexate alone): 11%
Structure (SMILES): CN(Cc1cnc2nc(N)nc(N)c2n1)c1ccc(C(=O)N[C@@H](CCC(=O)O)C(=O)O)cc1 [Methotrexate, methotrexate]

Structure (SMILES): CCC(C)n1ncn(-c2ccc(N3CCN(c4ccc(OCC5COC(Cn6cncn6)(c6ccc(Cl)cc6Cl)O5)cc4)CC3)cc2)c1=O (stereo not drawn) [itraconazole]
increase in plasma digoxin concentrations during coadministration [2]: approximately 80%

Structure (SMILES): CCOc1cc(CC(=O)N[C@@H](CC(C)C)c2ccccc2N2CCCCC2)ccc1C(=O)O [repaglinide]
PK in the presence and absence of isavuconazole [10]: unchanged

AUC(0-t) ([8]; human, plasma, oral, 850 mg): 9120 ng·h/mL
Tmax ([8]; metformin + isavuconazole (day 8), median (range)): 2.0 (1.0‐4.0) h
Cmax ([8]; metformin alone (day 1), mean (SD)): 1467 (449) ng/mL
Tmax ([8]; metformin alone (day 1), median (range)): 2.5 (1.0‐6.0) h
AUC∞ ([8]; metformin hydrochloride 850 mg single oral dose alone (day 1), mean (SD)): 9303 (2543) h·ng/mL
Mean AUClast higher in the presence vs absence of isavuconazole ([8]; metformin study): 50%
Mean AUC∞ higher in the presence vs absence of isavuconazole ([8]; metformin study): 52%
Mean Cmax higher in the presence vs absence of isavuconazole ([8]; metformin study): 23%
Structure (SMILES): CN(C)C(=N)N=C(N)N [Metformin, metformin]
